Reference: paper PMC9558053, “Development of a novel high-throughput screen for the identification of new inhibitors of protein S-acylation” (The Journal of Biological Chemistry, 2022)

Molecular target: T1, human zDHHC2 (Homo sapiens, UniProt Q9UIJ5)
T1 construct: expressed in transfected cells; host or cells: HEK293T
T1 sequence (Q9UIJ5 1-367): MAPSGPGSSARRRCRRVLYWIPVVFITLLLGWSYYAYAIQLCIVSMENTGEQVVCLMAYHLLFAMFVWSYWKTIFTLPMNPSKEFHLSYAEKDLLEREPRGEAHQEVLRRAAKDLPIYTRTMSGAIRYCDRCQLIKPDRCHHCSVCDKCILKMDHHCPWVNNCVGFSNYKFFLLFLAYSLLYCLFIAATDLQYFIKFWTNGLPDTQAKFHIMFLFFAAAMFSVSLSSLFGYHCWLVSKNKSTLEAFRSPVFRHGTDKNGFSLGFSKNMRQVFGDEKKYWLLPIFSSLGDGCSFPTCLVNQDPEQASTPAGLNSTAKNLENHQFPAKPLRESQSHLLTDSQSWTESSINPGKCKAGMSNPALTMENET
Assay: PSD95-mCHERRY S-acylation in HEK293T cells co-expressing zDHHC2
Type: cell-based
Conditions: 25 μM
Text: PSD95 (postsynaptic density protein 95) is a major S-acylated protein that has a critical role in the maturation of excitatory neurons and in synaptic plasticity ([46], [47]). PSD95 can be S-acylated by zDHHC2, zDHHC3, zDHHC7, and zDHHC15 ([6]). […] We therefore tested the effects of TTZ-1 and TTZ-2 on the S-acylation of PSD95 mediated by zDHHC2, zDHHC3, zDHHC7, and zDHHC15. […] In contrast, zDHHC3 and zDHHC7 activities toward PSD95 were unaffected by TTZ-1 and TTZ-2, mirroring the data obtained with GFP-SNAP25 as a substrate.
Figure 9 Activity of TTZ-1 and TTZ-2 against PSD95 S-acylation mediated by human zDHHC2, zDHHC3, zDHHC7, and zDHHC15 expressed in mammalian cells. HEK293T cells were transfected with a plasmid encoding PSD95-mCHERRY together with either a control plasmid pEF-BOS-HA (pEF) or a plasmid encoding either HA-tagged human zDHHC2 (zD2), zDHHC3 (zD3), zDHHC7 (zD7), or zDHHC15 (zD15) for 24 h. Cells were then preincubated for 4 h with TTZ-1 or TTZ-2 (25 μM final) or DMSO control before metabolic labeling with 100 μM C16:0-azide for 4 h. Cells were lysed, and proteins having incorporated C16:0-azide were labeled by click chemistry with an alkyne-IR800 dye. […] The data were quantified, and the graphs below each set of membranes show mean ± SEM of normalized S-acylation of PSD95-mCHERRY (click signal/RFP signal). […]

Compound	PSD95-mCHERRY S-acylation by zDHHC2
CCCCCCCOc1ccc(C(=O)Nc2cccc3c2OC(c2nnn[nH]2)CN3)cc1 (centres unmarked) [TTZ-1, N-(2-(1H-Tetrazol-5-yl)-3,4-dihydro-2H-benzo[b][1,4]oxazin-8-yl)-4-(heptyloxy)benzamide]	significantly inhibited
O=C(Nc1cccc2c1OC(c1nnn[nH]1)CN2)c1ccc(OCCCCc2ccccc2)cc1 (centres unmarked) [TTZ-2, N-(2-(1H-Tetrazol-5-yl)-3,4-dihydro-2H-benzo[b][1,4]oxazin-8-yl)-4-(4-phenylbutoxy)benzamide]	significantly inhibited
